ChEMBL document CHEMBL4627352, “New acrylamide-sulfisoxazole conjugates as dihydropteroate synthase inhibitors” (Bioorg Med Chem, 2020)
Values after ≈ are worked out from the molar mass of the structure shown. Active and inactive are the calls of the source. The calls are words filed in the database; no cut-off is given here.

Columns and labels:
[1] = test system: Aspergillus fumigatus; assay: Inhibition of DHPS in Aspergillus fumigatus assessed as antifungal activity by measuring inhibition zone at 5 mg/mL incubated for 48 hrs by disk diffusion method
[2] = test system: Proteus vulgaris; assay: Inhibition of DHPS in Proteus vulgaris assessed as antibacterial activity by measuring inhibition of bacterial growth incubated for 24 hrs by microbroth dilution method
[3] = test system: Escherichia coli ATCC 25922; assay: Inhibition of DHPS in Escherichia coli ATCC 25922 assessed as inhibition of bacterial growth incubated for 24 hrs in presence of folate dependent metabolite, methionine by microbroth dilution method
[4] = test system: Staphylococcus epidermidis; assay: Inhibition of DHPS in Staphylococcus epidermidis assessed as antibacterial activity by measuring inhibition zone at 5 mg/mL incubated for 24 hrs by disk diffusion method
[5] = test system: Bacillus subtilis; assay: Inhibition of DHPS in Bacillus subtilis assessed as antibacterial activity by measuring inhibition zone at 5 mg/mL incubated for 24 hrs by disk diffusion method
[6] = test system: Proteus vulgaris; assay: Inhibition of DHPS in Proteus vulgaris assessed as antibacterial activity by measuring inhibition zone at 5 mg/mL incubated for 24 hrs by disk diffusion method
[7] = test system: Geotrichum candidum; assay: Inhibition of DHPS in Geotrichum candidum assessed as antifungal activity by measuring inhibition zone at 5 mg/mL incubated for 48 hrs by disk diffusion method
[8] = test system: Klebsiella pneumoniae; assay: Inhibition of DHPS in Klebsiella pneumoniae assessed as antibacterial activity by measuring inhibition of bacterial growth incubated for 24 hrs by microbroth dilution method
[9] = test system: Streptococcus pneumoniae; assay: Inhibition of DHPS in Streptococcus pneumoniae assessed as antibacterial activity by measuring inhibition of bacterial growth incubated for 24 hrs by microbroth dilution method
[10] = test system: Escherichia coli ATCC 25922; assay: Inhibition of DHPS in Escherichia coli ATCC 25922 assessed as inhibition of bacterial growth incubated for 24 hrs in presence of folate precursor, pABA by microbroth dilution method
[11] = test system: Aspergillus fumigatus; assay: Inhibition of DHPS in Aspergillus fumigatus assessed as antifungal activity by measuring inhibition of fungal growth incubated for 48 hrs by microbroth dilution method
[12] = test system: Syncephalastrum racemosum; assay: Inhibition of DHPS in Syncephalastrum racemosum assessed as antifungal activity by measuring inhibition of fungal growth incubated for 48 hrs by microbroth dilution method
[13] = test system: Klebsiella pneumoniae; assay: Inhibition of DHPS in Klebsiella pneumoniae assessed as antibacterial activity by measuring inhibition zone at 5 mg/mL incubated for 24 hrs by disk diffusion method
[14] = test system: hTERT-BJ; assay: Cytotoxicity against human hTERT-BJ1 cells at 50 uM by acid phosphatase assay relative to control; format: cell-based
[15] = test system: Syncephalastrum racemosum; assay: Potency index, ratio of amphotericin B MIC to compound MIC for Syncephalastrum racemosum assessed as inhibition of DHPS-mediated fungal growth incubated for 48 hrs by microbroth dilution method
[16] = test system: Syncephalastrum racemosum; assay: Inhibition of DHPS in Syncephalastrum racemosum assessed as antifungal activity by measuring inhibition zone at 5 mg/mL incubated for 48 hrs by disk diffusion method
[17] = test system: Geotrichum candidum; assay: Inhibition of DHPS in Geotrichum candidum assessed as antifungal activity by measuring inhibition of fungal growth incubated for 48 hrs by microbroth dilution method
[18] = test system: Bacillus subtilis; assay: Inhibition of DHPS in Bacillus subtilis assessed as antibacterial activity by measuring inhibition of bacterial growth incubated for 24 hrs by microbroth dilution method
[19] = test system: Escherichia coli; assay: Inhibition of DHPS in Escherichia coli assessed as antibacterial activity by measuring inhibition of bacterial growth incubated for 24 hrs by microbroth dilution method
[20] = test system: Streptococcus pneumoniae; assay: Inhibition of DHPS in Streptococcus pneumoniae assessed as antibacterial activity by measuring inhibition zone at 5 mg/mL incubated for 24 hrs by disk diffusion method
[21] = test system: Staphylococcus epidermidis; assay: Inhibition of DHPS in Staphylococcus epidermidis assessed as antibacterial activity by measuring inhibition of bacterial growth incubated for 24 hrs by microbroth dilution method
[22] = test system: Escherichia coli; assay: Inhibition of DHPS in Escherichia coli assessed as antibacterial activity by measuring inhibition zone at 5 mg/mL incubated for 24 hrs by disk diffusion method
[23] = test system: Aspergillus fumigatus; assay: Potency index, ratio of sulfisoxazole MIC to compound MIC for Aspergillus fumigatus assessed as inhibition of DHPS-mediated fungal growth incubated for 48 hrs by microbroth dilution method
[24] = test system: Geotrichum candidum; assay: Potency index, ratio of sulfisoxazole MIC to compound MIC for Geotrichum candidum assessed as inhibition of DHPS-mediated fungal growth incubated for 48 hrs by microbroth dilution method
[25] = test system: Escherichia coli; assay: Potency index, ratio of sulfisoxazole MIC to compound MIC for Escherichia coli assessed as inhibition of DHPS-mediated bacterial growth incubated for 24 hrs by microbroth dilution method
[26] = test system: Staphylococcus epidermidis; assay: Potency index, ratio of sulfisoxazole MIC to compound MIC for Staphylococcus epidermidis assessed as inhibition of DHPS-mediated bacterial growth incubated for 24 hrs by microbroth dilution method
[27] = test system: Klebsiella pneumoniae; assay: Potency index, ratio of sulfisoxazole MIC to compound MIC for Klebsiella pneumoniae assessed as inhibition of DHPS-mediated bacterial growth incubated for 24 hrs by microbroth dilution method

Molecule | inhibition zone (IZ) [1] [mm] | MIC [2] [µg/mL] | inhibition [3] | inhibition zone (IZ) [4] | inhibition zone (IZ) [5] | inhibition zone (IZ) [6] | inhibition zone (IZ) [7] [mm] | MIC [8] [µg/mL] | MIC [9] [µg/mL] | inhibition [10] | MIC [11] [µg/mL] | MIC [12] [µg/mL] | inhibition zone (IZ) [13] | inhibition zone (IZ) [16] [mm] | MIC [17] [µg/mL] | MIC [18] [µg/mL] | MIC [19] [µg/mL] | inhibition zone (IZ) [20] | MIC [21] [µg/mL] | inhibition zone (IZ) [22] | also measured
CCS/C(NC)=C(\C#N)C(=O)Nc1ccc(S(=O)(=O)Nc2onc(C)c2C)cc1 | 17.1 | 31.2 (≈ 71.8 µM) | inactive | 20.9 mm | 21.2 mm | 16.4 mm | 18.3 | 1.95 (≈ 4.48 µM) | 3.9 (≈ 8.95 µM) | inactive | 15.6 (≈ 35.9 µM) | 3.9 (≈ 8.95 µM) | 21.3 mm | 19.9 | 7.81 (≈ 17.9 µM) | 0.98 (≈ 2.25 µM) | 7.81 (≈ 17.9 µM) | 20.2 mm | 1.95 (≈ 4.48 µM) | 18.2 mm | Activity [14]: 2.7%; Ratio [15]: 2
Cc1noc(NS(=O)(=O)c2ccc(NC(=O)/C(C#N)=C(/S)Nc3ccccc3)cc2)c1C | 16.8 |  | inactive | inactive | inactive | inactive | 17.1 |  |  | inactive | 15.6 (≈ 33.3 µM) | 125 (≈ 266 µM) | inactive | 14.3 | 31.2 (≈ 66.6 µM) |  |  | inactive |  | inactive | Ratio [23]: 2
CCN/C(S)=C(/C#N)C(=O)Nc1ccc(S(=O)(=O)Nc2onc(C)c2C)cc1 | 12.6 |  | inactive | 17.3 mm | 15.4 mm | 12.6 mm | 17.1 | 62.5 (≈ 148 µM) | 62.5 (≈ 148 µM) | inactive |  | 7.81 (≈ 18.5 µM) | 16.4 mm | 13.2 | 15.6 (≈ 37.1 µM) | 62.5 (≈ 148 µM) | 62.5 (≈ 148 µM) | 13.7 mm | 31.2 (≈ 74.1 µM) | 14.3 mm | Activity [14]: 1.7%
C=CCN/C(S[C@@H]1O[C@H](COC(C)=O)[C@@H](OC(C)=O)[C@H](OC(C)=O)[C@H]1OC(C)=O)=C(/C#N)C(=O)Nc1ccc(S(=O)(=O)Nc2onc(C)c2C)cc1 | 26.1 |  | inactive | 25.6 mm | 28.6 mm | inactive | 23.2 | 0.49 (≈ 0.642 µM) | 1.95 (≈ 2.55 µM) | inactive | 0.98 (≈ 1.28 µM) | 1.95 (≈ 2.55 µM) | 23.2 mm | 24.4 | 0.49 (≈ 0.642 µM) | 0.98 (≈ 1.28 µM) | 3.9 (≈ 5.11 µM) | 26.7 mm | 3.9 (≈ 5.11 µM) | 23.4 mm | Activity [14]: 15.2%; Ratio [15]: 2; Ratio [23]: 4 to 6; Ratio [24]: 3 to 5; Ratio [25]: 4
CN/C(S)=C(/C#N)C(=O)Nc1ccc(S(=O)(=O)Nc2onc(C)c2C)cc1 | 18.6 | 7.81 (≈ 19.2 µM) | inactive | 20.8 mm | 22.4 mm | 18.3 mm | 18.9 | 0.98 (≈ 2.41 µM) | 3.9 (≈ 9.57 µM) | inactive | 3.9 (≈ 9.57 µM) | 15.6 (≈ 38.4 µM) | 22.6 mm | 17.2 | 3.9 (≈ 9.57 µM) | 0.98 (≈ 2.41 µM) | 1.95 (≈ 4.79 µM) | 20.3 mm | 1.95 (≈ 4.79 µM) | 20.6 mm | Ratio [26]: 4; Ratio [27]: 3; Ratio [23]: 4; Ratio [24]: 2
CCN/C(S[C@@H]1O[C@H](COC(C)=O)[C@@H](OC(C)=O)[C@H](OC(C)=O)[C@H]1OC(C)=O)=C(/C#N)C(=O)Nc1ccc(S(=O)(=O)Nc2onc(C)c2C)cc1 | 24.2 | 7.81 (≈ 10.4 µM) | inactive | 24.7 mm | 27.5 mm | 21.4 mm | 22.1 | 0.98 (≈ 1.3 µM) | 3.9 (≈ 5.19 µM) | inactive | 3.9 (≈ 5.19 µM) | 15.6 (≈ 20.8 µM) | 18.8 mm | 21.3 | 0.98 (≈ 1.3 µM) | 1.95 (≈ 2.59 µM) | 7.81 (≈ 10.4 µM) | 25.3 mm | 3.9 (≈ 5.19 µM) | 21.3 mm | Ratio [23]: 4 to 6; Ratio [24]: 3 to 5
CCN/C(SC)=C(/C#N)C(=O)Nc1ccc(S(=O)(=O)Nc2onc(C)c2C)cc1 |  |  |  |  |  |  |  |  |  |  |  |  |  |  |  |  |  |  |  |  | Activity [14]: 1.1%
GENTAMICIN |  | 0.24 |  |  |  | 23.4 mm |  | 0.03 |  |  |  |  | 26.3 mm |  |  | 0.24 | 1.95 |  |  | 19.9 mm | 
